Earlier results on two compounds are cited in US6383817B2, “Cadmium is a risk factor for human pancreatic cancer” (Wake Forest University, priority 1999, dated 2002).

Molecules are shown by their SMILES. Read-outs that look alike come from different tables or passages of the source.

For one data set, the system named is mice. The settings on record: injection of 4 mg/kg, relative to saline.
The next data set has as its system Wistar rats. The settings on record: injection, vs. 2.2% control.
The subject of data set [1] is Louisiana red swamp crayfish (Procambarus clarkii). Conditions: day 14; crayfish fed plants grown for 7 days in 0.00224 ppb cadmium.
The test system of data set [2] is pancreatic metallothionein. Conditions: rats.
The subject of the next data set is rats. The settings on record: repeated injections to rats.
Assay in data set [3]: not given
The source holds these as a separate data set.

Turning to `[Cl][Cd][Cl]` [cadmium chloride], in the data set on mice, the “increase in the incorporation of [3H] thymidine in the pancreas” value is 2.5 fold. The “incidence of pancreatic islet cell tumors” value in the data set on Wistar rats is listed as 8.5%.

On to `[Cd]` [cadmium], for which the “SMR (x100), pancreatic cancer deaths” value runs as follows: (Elinder et al. (1985), male cadmium-nickel battery workers, Oskarshamn, Sweden) 130; (Järup et al. (1998), battery workers, Kalmar, Sweden, females) 220; (Järup et al. (1998), battery workers, Kalmar, Sweden, males) 148; (Sorahan et al. (1995), male copper cadmium alloy workers, England and Wales) 218. In addition, the “Accumulation of cadmium in hepatopancreata” value in data set [1] is 4,657.6 ppb. Moreover, the “increase in pancreatic metallothionein” value in data set [2] (injection of 4 mg/kg) is 9.8 fold; in data set [2] (injection of 8 mg/kg), 17.9 fold. The “rats with hepatocytic foci in the pancreata” value in the data set with rats is listed as “more than 93%”. Besides, the “correlation (r) between estimated dietary intake of cadmium and pancreatic cancer mortality” value in data set [3] (men) is 0.48; in data set [3] (women), 0.25.
